Reference: patent publication EP4389751A1, “HETEROCYCLIC COMPOUNDS AND USES THEREOF” (Kumquat Biosciences Inc., priority 2021, dated 2024)
Read-outs that look alike come from different tables or passages of the source.

How the values were obtained:
[1] = biological target: T1, KRAS protein (His-tagged GDP-loaded G12S 1-169) (Homo sapiens, UniProt P01116, G12S); assay: Covalent modification of KRAS protein, intact-protein LC-MS; assay type: binding; conditions: for % G12S Modification at 24 hr.: 24hrs at room temperature, KRAS protein ~2 µM
T1 construct: His-tagged GDP-loaded G12S 1-169
Outline: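 Percent covalent modification derives from deconvoluted intact-mass intensities of compound-adducted versus unmodified KRAS, measured by LC-ESI-MS. Before analysis, ~2 µM GDP-loaded His-KRAS 1-169 was exposed to compound for 24 h at room temperature and acidified with formic acid.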

A549 cells = assay: Cell proliferation assay (CellTiter-Glo), K-Ras G12S cells; assay type: cell-based; conditions: for IC50: Homo sapiens; for ratio of IC50 against a G12D cell line to IC50 against a G12S cell line: K-Ras G12D cell line such as GP2D relative to K-Ras G12S cell line such as A549, greater than 1, 2, 3, 4, 5, 10, 15 or even greater, 8640 min
Outline: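 A549 cells (K-Ras G12S) in RPMI-1640 with 10% FBS, seeded in standard or ultra-low-attachment plates and dosed next day with a 10-point 3-fold series. Viability read about 6 days later by CellTiter-Glo luminescence. IC50 from four-parameter fit.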

GP2D cells = assay: Cell proliferation assay (CellTiter-Glo), K-Ras G12D cells; assay type: cell-based; conditions: read-out: Inhibition of GP2D Cells (IC50)
Outline: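 CellTiter-Glo luminescence, taken roughly 5 days after dosing, measured growth of G12D-mutant GP2D cells in DMEM/2 mM glutamine/10% FBS. Compound dilution series (e.g., 9 points, 3-fold) added the day after plating. Four-parameter fitting gave IC50.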

[2] = A549, A549 cells (K-Ras G12S), bin ≤ 500 nM, read-out: Inhibition of A549 Cells (IC50)
[3] = A549, A549 cells (K-Ras G12S), bin 500 nM to 5 µM, read-out: Inhibition of A549 Cells (IC50)

IC50 (A549 cells; [2]) [nM] | ratio of IC50 against a G12D cell line to IC50 against a G12S cell line (A549 cells) | IC50 (A549 cells; [3]) [nM] | SMILES | % G12S Modification at 24 hr. [1] | IC50 (GP2D cells; GP2D cells (K-Ras G12D)) [nM] | IC50 (A549 cells; A549, read-out: Inhibition of A549 Cells (IC50)) [nM] | IC50 (GP2D cells; GP2d) [nM] | K-Ras12S engagement after 24-hour treatment ([1]; 24-hour treatment, compound pairs differ only at R^6 (warhead))
≤ 500 | – | – | N#Cc1c(N)sc2c(F)ccc(-c3c(Cl)cc4c(N5CC6(CCCCN(C(=O)n7cncn7)C6)C5)nc(OC[C@@]56CCCN5C[C@H](F)C6)nc4c3F)c12 [Compound A285, 4-(4-(6-(1H-1,2,4-triazole-1-carbonyl)-2,6-diazaspiro[3.6]decan-2-yl)-6-chloro-8-fluoro-2-(((2R,7aS)-2-fluorotetrahydro-1H-pyrrolizin-7a(5H)-yl)methoxy)quinazolin-7-yl)-2-amino-7-fluorobenzo[b]thiophene-3-carbonitrile] | +++ (+++ indicates greater than 20% labelling) | 1000 to 10000 | – | – | –
≤ 500 | greater than 1 | – | N#Cc1c(N)sc2c(F)ccc(-c3c(Cl)cc4c(N5CCOC6CN(C(=O)n7cncn7)CC65)nc(OC[C@@]56CCCN5C[C@H](F)C6)nc4c3F)c12 (stereo partly drawn) [Compound A218, 4-(4-(6-(1H-1,2,4-triazole-1-carbonyl)hexahydropyrrolo [3,4-b][1,4]oxazin-4(4aH)-yl)-6-chloro-8-fluoro-2-(((2R,7aS)-2-fluorotetrahydro-1H-pyrrolizin-7a(5H)-yl)methoxy)quinazolin-7-yl)-2-amino-7-fluorobenzo[b]thiophene-3-carbonitrile] | +++ (+++ indicates greater than 20% labelling) | 1000 to 10000 | – | – | –
≤ 500 | – | – | N#Cc1c(N)sc2c(F)ccc(-c3c(Cl)cc4c(N5CCOC6(CN(C(=O)n7ccnn7)C6)C5)nc(OC[C@@]56CCCN5C[C@H](F)C6)nc4c3F)c12 [Compound A195, 4-(4-(2-(1H-1,2,3-triazole-1-carbonyl)-5-oxa-2,8-diazaspiro[3.5]nonan-8-yl)-6-chloro-8-fluoro-2-(((2R,7aS)-2-fluorotetrahydro-1H-pyrrolizin-7a(5H)-yl)methoxy)quinazolin-7-yl)-2-amino-7-fluorobenzo[b]thiophene-3-carbonitrile] | +++ (+++ indicates greater than 20% labelling) | 1000 to 10000 | – | – | –
≤ 500 | – | – | CN(C)C1CN(c2nc(N3CCOC4(CN(C(=O)n5cncn5)C4)C3)c3cc(Cl)c(-c4ccc(F)c5sc(N)c(C#N)c45)c(F)c3n2)C1 [Compound A256, 4-(4-(2-(1H-1,2,4-triazole-1-carbonyl)-5-oxa-2,8-diazaspiro[3.5]nonan-8-yl)-6-chloro-2-(3-(dimethylamino)azetidin-1-yl)-8-fluoroquinazolin-7-yl)-2-amino-7-fluorobenzo[b]thiophene-3-carbonitrile] | +++ (+++ indicates greater than 20% labelling) | 1000 to 10000 | – | – | –
≤ 500 | – | – | Cc1ncn(C(=O)N2CC3(C2)CN(c2nc(OC[C@@]45CCCN4C[C@H](F)C5)nc4c(F)c(-c5ccc(F)c6sc(N)c(C#N)c56)c(Cl)cc24)CCO3)n1 [Compound A148, 2-amino-4-(6-chloro-8-fluoro-2-(((2R,7aS)-2-fluorotetrahydro-1H-pyrrolizin-7 a(5H)-yl)methoxy)-4-(2-(3-methyl-1H-1,2,4-triazole-1-carbonyl)-5-oxa-2,8-diazaspiro[3.5]nonan-8-yl)quinazolin-7-yl)-7-fluorobenzo[b]thiophene-3-carbonitrile] | +++ (+++ indicates greater than 20% labelling) | 1000 to 10000 | – | – | –
– | greater than 1 | 500 to 5000 | C#Cc1c(F)ccc2cc(O)cc(-c3ncc4c(N5CCOCC6(CN(C(=O)n7cnc(C)n7)C6)C5)nc(OC[C@@]56CCCN5C[C@H](F)C6)nc4c3F)c12 [Compound A298, (9-(7-(8-ethynyl-7-fluoro-3-hydroxynaphthalen-1-yl)-8-fluoro-2-(((2R,7aS)-2-fluorotetrahydro-1H-pyrrolizin-7a(5H)-yl)methoxy)pyrido[4,3-d]pyrimidin-4-yl)-6-oxa-2,9-diazaspiro[3.6]decan-2-yl)(3-methyl-1H-1,2,4-triazol-1-yl)methanone] | +++ (+++ indicates greater than 20% labelling) | 1000 to 10000 | – | – | –

Second part, the compound before the results:

SMILES | IC50 (A549 cells; [2]) [nM] | ratio of IC50 against a G12D cell line to IC50 against a G12S cell line (A549 cells) | IC50 (A549 cells; [3]) [nM] | % G12S Modification at 24 hr. [1] | IC50 (GP2D cells; GP2D cells (K-Ras G12D)) [nM] | IC50 (A549 cells; A549, read-out: Inhibition of A549 Cells (IC50)) [nM] | IC50 (GP2D cells; GP2d) [nM] | K-Ras12S engagement after 24-hour treatment ([1]; 24-hour treatment, compound pairs differ only at R^6 (warhead))
Cc1ncn(C(=O)N2CC3(CCCN(c4nc(OC[C@@]56CCCN5C[C@H](F)C6)nc5c(F)c(-c6ccc(F)c7sc(N)c(C#N)c67)c(Cl)cc45)C3)C2)n1 [Compound A102, 2-amino-4-(6-chloro-8-fluoro-2-(((2R,7aS)-2-fluorotetrahydro-1H-pyrrolizin-7 a(5H)-yl)methoxy)-4-(2-(3-methyl-1H-1,2,4-triazole-1-carbonyl)-2,6-diazaspiro[3.5]nonan-6-yl)quinazolin-7-yl)-7-fluorobenzo[b]thiophene-3-carbonitrile] | ≤ 500 | greater than 1 | – | +++ (+++ indicates greater than 20% labelling) | 1000 to 10000 | – | – | –
CN1CCC[C@H]1COc1nc(N2CCOC3(CN(C(=O)n4cncn4)C3)C2)c2cc(Cl)c(-c3ccc(F)c4sc(N)c(C#N)c34)c(F)c2n1 [Compound A137, 4-(4-(2-(1H-1,2,4-triazole-1-carbonyl)-5-oxa-2,8-diazaspiro[3.5]nonan-8-yl)-6-chloro-8-fluoro-2-(((S)-1-methylpyrrolidin-2-yl)methoxy)quinazolin-7-yl)-2-amino-7-fluorobenzo[b]thiophene-3-carbonitrile] | ≤ 500 | – | – | +++ (+++ indicates greater than 20% labelling) | 1000 to 10000 | – | – | –
N#Cc1ccn(C(=O)N2C3CCC2CN(c2nc(OC[C@@]45CCCN4C[C@H](F)C5)nc4c(F)c(-c5ccc(F)c6sc(N)c(C#N)c56)c(Cl)cc24)C3)n1 [Compound A224, 1-(3-(7-(2-amino-3-cyano-7-fluorobenzo[b]thiophen-4-yl)-6-chloro-8-fluoro-2-(((2R,7aS)-2-fluorotetrahydro-1H-pyrrolizin-7a(5H)-yl)methoxy)quinazolin-4-yl)-3,8-diazabicyclo[3.2. 1]octane-8-carbonyl)-1H-pyrazole-3-carbonitrile] | – | – | 500 to 5000 | ++ (++ indicates between about 1%- 20% labelling) | ≤ 1000 | – | – | –
COCCN1CCC(Oc2nc(N3CCCCC4(CN(C(=O)n5cncn5)C4)C3)c3cc(Cl)c(-c4ccc(F)c5sc(N)c(C#N)c45)c(F)c3n2)CC1 [Compound A119, 4-(4-(2-(1H-1,2,4-triazole-1-carbonyl)-2,6-diazaspiro[3.6]decan-6-yl)-6-chloro-8-fluoro-2-((1-(2-methoxyethyl)piperidin-4-yl)oxy)quinazolin-7-yl)-2-amino-7-fluorobenzo[b]thiophene-3-carbonitrile] | – | – | 500 to 5000 | +++ (+++ indicates greater than 20% labelling) | 1000 to 10000 | – | – | –
N#Cc1nccn1C(=O)N1C2CCC1CN(c1nc(OC[C@@]34CCCN3C[C@H](F)C4)nc3c(F)c(-c4ccc(F)c5sc(N)nc45)c(Cl)cc13)C2 [Compound A170, 1-(3-(7-(2-amino-7-fluorobenzo[d]thiazol-4-yl)-6-chloro-8-fluoro-2-(((2R,7aS)-2-fluorotetrahydro-1H-pyrrolizin-7a(5H)-yl)methoxy)quinazolin-4-yl)-3,8-diazabicyclo[3.2. 1]octane-8-carbonyl)-1H-imidazole-2-carbonitrile] | – | – | – | ++ (++ indicates between about 1%- 20% labelling) | – | 500 to 5000 | ≤ 1000 | –
Nc1nc2c(-c3c(Cl)cc4c(N5CCN(C(=O)n6cncn6)CC5)nc(OC[C@@]56CCCN5C[C@H](F)C6)nc4c3F)ccc(F)c2s1 [Compound A146, (4-(7-(2-amino-7-fluorobenzo[d]thiazol-4-yl)-6-chloro-8-fluoro-2-(((2R,7aS)-2-fluorotetrahydro-1H-pyrrolizin-7a(5H)-yl)methoxy)quinazolin-4-yl)piperazin-1-yl)(1H-1,2,4-triazol-1-yl)methanone] | – | – | 500 to 5000 | +++ (+++ indicates greater than 20% labelling) | ≤ 1000 | – | – | –
N#CCc1ncn(C(=O)N2CC3(C2)CN(c2nc(OC[C@@]45CCCN4C[C@H](F)C5)nc4c(F)c(-c5ccc(F)c6sc(N)c(C#N)c56)c(Cl)cc24)CCO3)n1 [Compound A110, 2-amino-4-(6-chloro-4-(2-(3-(cyanomethyl)-1H-1,2,4-triazole-1-carbonyl)-5-oxa-2,8-diazaspiro[3.5]nonan-8-yl)-8-fluoro-2-(((2R,7aS)-2-fluorotetrahydro-1H-pyrrolizin-7a(5H)-yl)methoxy)quinazolin-7-yl)-7-fluorobenzo[b]thiophene-3-carbonitrile] | ≤ 500 | greater than 1 | – | +++ (+++ indicates greater than 20% labelling) | 1000 to 10000 | – | – | +++ (+++: indicates equal to or greater than 20% labelling)
